Assay [1] deals with RAC-gamma serine/threonine-protein kinase (Homo sapiens, UniProt Q9Y243).
Assay [2] has as its target T1, Serine/threonine-protein kinase DCLK1 (Homo sapiens, UniProt O15075).
T1 sequence (O15075 whole entry): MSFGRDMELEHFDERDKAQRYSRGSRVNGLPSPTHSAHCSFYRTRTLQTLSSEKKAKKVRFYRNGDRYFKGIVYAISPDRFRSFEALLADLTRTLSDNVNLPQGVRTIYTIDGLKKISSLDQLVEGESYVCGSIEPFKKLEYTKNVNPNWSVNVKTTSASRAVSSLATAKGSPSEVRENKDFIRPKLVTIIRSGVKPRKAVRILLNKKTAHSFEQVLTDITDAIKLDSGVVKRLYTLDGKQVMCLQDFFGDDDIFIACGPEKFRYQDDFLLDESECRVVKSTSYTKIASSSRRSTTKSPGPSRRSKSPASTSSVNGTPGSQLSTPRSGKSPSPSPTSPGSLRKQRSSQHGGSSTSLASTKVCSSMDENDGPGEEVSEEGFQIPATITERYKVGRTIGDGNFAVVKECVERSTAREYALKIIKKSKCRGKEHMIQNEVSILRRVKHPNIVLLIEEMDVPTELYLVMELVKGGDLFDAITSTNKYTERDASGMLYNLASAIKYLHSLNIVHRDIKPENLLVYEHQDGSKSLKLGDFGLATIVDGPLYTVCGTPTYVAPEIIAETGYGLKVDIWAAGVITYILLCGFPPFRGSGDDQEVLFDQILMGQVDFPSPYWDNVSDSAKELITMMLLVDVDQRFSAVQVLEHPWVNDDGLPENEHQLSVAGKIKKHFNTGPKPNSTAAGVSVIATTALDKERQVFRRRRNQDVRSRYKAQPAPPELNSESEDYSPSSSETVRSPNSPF

Assay [3] addresses Receptor-interacting serine/threonine-protein kinase 2 (Homo sapiens, UniProt O43353).
The target of assay [4] is Citron Rho-interacting kinase (Homo sapiens, UniProt O14578).
Assay [5] addresses Tyrosine-protein kinase FRK (Homo sapiens, UniProt P42685).
Assay [6] deals with Cyclin-dependent kinase 7 (Homo sapiens, UniProt P50613).
Assay [7] concerns the target Ribosomal protein S6 kinase alpha-6 (Homo sapiens, UniProt Q9UK32).
In the next assay the target is Ephrin type-A receptor 7 (Homo sapiens, UniProt Q15375).
For assay [8], the target named is T2, MAP/microtubule affinity-regulating kinase 4 (Homo sapiens, UniProt Q96L34).
T2 sequence (Q96L34 whole entry): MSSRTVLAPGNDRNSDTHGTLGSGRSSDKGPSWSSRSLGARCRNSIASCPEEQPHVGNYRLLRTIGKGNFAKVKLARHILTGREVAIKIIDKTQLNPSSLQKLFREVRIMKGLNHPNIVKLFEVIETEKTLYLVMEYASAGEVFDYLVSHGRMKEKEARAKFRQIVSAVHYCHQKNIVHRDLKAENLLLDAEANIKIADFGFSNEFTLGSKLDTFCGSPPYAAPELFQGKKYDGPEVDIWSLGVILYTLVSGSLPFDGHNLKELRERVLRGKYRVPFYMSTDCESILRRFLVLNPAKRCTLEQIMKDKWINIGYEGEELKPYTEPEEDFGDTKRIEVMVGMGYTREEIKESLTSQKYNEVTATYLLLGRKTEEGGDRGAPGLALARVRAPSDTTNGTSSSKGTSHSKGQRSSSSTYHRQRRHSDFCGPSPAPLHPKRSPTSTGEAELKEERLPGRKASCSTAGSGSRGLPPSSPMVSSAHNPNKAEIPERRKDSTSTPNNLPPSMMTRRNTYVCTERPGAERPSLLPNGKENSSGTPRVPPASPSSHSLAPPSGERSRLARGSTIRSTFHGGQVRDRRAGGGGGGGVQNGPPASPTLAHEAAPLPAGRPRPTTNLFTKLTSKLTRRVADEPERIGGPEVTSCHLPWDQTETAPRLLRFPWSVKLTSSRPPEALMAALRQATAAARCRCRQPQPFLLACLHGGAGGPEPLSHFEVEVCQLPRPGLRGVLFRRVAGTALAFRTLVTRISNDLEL

For assay [9], the target named is Calcium/calmodulin-dependent protein kinase type II subunit gamma (Homo sapiens, UniProt Q13555).
Assay [10] concerns the target T3, Serine/threonine-protein kinase tousled-like 1 (Homo sapiens, UniProt Q9UKI8).
T3 sequence (Q9UKI8 whole entry): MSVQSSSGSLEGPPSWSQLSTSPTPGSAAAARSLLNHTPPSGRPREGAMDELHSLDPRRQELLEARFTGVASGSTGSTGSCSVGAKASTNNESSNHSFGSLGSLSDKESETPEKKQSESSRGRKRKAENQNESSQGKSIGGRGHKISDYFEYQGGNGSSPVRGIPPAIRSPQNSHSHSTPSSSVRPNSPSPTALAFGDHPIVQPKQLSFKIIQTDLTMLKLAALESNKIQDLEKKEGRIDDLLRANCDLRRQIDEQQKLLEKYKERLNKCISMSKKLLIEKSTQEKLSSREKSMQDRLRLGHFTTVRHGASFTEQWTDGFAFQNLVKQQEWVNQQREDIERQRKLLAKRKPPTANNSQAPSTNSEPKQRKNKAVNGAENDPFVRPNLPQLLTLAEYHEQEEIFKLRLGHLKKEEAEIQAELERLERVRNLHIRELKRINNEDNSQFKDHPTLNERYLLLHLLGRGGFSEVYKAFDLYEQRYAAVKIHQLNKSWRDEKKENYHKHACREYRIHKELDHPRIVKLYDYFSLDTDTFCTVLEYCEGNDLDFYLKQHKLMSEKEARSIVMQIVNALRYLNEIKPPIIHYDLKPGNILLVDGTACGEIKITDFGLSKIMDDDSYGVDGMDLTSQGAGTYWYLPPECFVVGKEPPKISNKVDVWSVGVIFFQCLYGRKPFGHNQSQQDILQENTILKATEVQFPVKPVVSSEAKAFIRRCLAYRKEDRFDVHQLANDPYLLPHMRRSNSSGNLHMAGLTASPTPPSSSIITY

This passage reports Kd results from ChEMBL document CHEMBL1150977, “A quantitative analysis of kinase inhibitor selectivity” (Nat Biotechnol, 2008).

pKd: −log10 of the molar value.

Receptor-interacting serine/threonine-protein kinase 2, sequence (O43353 whole entry): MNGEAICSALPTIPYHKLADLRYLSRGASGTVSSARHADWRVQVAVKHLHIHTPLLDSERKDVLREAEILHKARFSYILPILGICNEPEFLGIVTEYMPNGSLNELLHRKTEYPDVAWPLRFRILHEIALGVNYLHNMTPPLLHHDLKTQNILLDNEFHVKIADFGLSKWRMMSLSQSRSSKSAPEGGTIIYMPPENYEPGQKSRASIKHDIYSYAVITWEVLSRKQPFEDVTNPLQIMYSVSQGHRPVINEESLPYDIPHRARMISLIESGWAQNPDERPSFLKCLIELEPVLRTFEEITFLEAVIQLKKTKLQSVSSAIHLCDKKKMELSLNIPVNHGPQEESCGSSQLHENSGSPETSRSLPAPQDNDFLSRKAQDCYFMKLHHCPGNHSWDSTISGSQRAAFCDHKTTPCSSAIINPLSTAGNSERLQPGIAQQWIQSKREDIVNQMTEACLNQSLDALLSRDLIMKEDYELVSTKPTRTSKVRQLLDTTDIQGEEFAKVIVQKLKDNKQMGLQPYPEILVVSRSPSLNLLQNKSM
Citron Rho-interacting kinase, sequence (O14578 whole entry): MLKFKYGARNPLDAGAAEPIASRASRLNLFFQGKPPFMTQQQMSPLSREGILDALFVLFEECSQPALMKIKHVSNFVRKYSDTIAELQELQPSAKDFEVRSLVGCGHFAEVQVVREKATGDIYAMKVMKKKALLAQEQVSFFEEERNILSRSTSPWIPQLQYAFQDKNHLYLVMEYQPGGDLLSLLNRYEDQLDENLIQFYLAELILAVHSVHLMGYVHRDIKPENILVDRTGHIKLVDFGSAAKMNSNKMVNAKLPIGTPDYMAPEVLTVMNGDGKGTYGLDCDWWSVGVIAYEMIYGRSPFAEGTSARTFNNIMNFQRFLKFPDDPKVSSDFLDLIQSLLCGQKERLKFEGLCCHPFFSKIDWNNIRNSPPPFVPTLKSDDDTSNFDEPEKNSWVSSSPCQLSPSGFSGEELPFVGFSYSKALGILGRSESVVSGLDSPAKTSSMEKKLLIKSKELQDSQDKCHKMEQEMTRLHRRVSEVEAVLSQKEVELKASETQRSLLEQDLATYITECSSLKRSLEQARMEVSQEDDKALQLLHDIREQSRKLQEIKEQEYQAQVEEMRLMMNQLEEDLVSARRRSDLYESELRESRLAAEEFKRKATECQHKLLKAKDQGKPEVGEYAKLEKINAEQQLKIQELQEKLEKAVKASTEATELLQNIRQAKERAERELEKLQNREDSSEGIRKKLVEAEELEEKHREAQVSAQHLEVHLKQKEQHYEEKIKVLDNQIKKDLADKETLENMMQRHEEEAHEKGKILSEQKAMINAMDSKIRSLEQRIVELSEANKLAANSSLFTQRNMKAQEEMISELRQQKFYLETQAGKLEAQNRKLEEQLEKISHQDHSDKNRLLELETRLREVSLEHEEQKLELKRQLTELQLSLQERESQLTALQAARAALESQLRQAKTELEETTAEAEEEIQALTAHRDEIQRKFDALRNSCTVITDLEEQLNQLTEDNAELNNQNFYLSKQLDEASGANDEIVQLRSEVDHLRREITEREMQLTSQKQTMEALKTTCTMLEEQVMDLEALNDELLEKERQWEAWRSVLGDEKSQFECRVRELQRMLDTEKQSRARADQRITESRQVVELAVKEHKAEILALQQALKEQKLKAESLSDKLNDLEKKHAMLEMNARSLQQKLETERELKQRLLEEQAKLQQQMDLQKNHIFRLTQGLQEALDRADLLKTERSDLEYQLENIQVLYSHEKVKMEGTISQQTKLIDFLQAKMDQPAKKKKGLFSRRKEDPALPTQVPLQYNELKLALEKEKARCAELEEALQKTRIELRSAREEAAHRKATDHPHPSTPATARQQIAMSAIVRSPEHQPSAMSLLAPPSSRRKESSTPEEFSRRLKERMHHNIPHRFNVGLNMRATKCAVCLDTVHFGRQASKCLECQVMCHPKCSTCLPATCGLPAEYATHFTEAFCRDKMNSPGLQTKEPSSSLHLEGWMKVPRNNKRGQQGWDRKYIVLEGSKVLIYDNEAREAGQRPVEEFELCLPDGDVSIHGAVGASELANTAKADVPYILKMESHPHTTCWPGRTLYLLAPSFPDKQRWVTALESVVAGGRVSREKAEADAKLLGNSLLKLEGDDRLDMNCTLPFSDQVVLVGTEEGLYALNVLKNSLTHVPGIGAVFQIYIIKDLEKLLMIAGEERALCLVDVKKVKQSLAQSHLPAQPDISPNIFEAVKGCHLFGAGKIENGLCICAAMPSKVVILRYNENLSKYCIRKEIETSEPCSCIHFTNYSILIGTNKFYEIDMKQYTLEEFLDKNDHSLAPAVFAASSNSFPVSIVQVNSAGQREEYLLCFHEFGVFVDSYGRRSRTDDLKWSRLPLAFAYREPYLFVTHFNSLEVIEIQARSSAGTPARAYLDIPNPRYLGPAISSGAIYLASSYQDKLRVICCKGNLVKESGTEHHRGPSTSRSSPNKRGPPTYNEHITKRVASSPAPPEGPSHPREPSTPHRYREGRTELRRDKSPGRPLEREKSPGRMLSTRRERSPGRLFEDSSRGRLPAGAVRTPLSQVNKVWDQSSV
Cyclin-dependent kinase 7, sequence (P50613 whole entry): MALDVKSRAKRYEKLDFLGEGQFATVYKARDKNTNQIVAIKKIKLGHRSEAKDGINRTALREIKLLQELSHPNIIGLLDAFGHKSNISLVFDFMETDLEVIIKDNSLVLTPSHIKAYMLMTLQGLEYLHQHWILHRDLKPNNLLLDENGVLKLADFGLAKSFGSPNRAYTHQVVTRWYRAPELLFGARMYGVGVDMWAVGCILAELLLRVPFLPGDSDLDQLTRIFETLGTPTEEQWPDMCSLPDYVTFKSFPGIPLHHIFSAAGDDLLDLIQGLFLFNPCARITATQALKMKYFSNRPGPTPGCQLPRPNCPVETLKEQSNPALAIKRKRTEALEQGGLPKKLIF
Ribosomal protein S6 kinase alpha-6, sequence (Q9UK32 whole entry): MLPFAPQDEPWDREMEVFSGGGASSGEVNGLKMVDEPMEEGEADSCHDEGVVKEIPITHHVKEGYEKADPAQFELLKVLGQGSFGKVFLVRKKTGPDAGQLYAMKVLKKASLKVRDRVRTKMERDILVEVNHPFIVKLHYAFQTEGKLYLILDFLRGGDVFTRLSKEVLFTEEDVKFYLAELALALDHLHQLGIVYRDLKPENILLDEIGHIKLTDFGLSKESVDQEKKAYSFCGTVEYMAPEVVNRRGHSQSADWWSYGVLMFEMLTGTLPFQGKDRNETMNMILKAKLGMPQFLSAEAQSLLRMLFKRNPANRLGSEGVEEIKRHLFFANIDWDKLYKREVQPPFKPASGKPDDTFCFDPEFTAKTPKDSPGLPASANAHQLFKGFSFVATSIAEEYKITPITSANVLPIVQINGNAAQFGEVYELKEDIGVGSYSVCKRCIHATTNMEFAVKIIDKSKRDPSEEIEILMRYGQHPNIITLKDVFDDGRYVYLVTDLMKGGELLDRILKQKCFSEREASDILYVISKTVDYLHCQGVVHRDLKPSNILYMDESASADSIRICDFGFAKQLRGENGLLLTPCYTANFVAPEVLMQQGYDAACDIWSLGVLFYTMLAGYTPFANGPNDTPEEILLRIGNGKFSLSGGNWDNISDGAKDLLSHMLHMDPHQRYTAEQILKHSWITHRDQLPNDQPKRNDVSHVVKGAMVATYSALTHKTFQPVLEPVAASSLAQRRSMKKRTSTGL
Tyrosine-protein kinase FRK, sequence (P42685 whole entry): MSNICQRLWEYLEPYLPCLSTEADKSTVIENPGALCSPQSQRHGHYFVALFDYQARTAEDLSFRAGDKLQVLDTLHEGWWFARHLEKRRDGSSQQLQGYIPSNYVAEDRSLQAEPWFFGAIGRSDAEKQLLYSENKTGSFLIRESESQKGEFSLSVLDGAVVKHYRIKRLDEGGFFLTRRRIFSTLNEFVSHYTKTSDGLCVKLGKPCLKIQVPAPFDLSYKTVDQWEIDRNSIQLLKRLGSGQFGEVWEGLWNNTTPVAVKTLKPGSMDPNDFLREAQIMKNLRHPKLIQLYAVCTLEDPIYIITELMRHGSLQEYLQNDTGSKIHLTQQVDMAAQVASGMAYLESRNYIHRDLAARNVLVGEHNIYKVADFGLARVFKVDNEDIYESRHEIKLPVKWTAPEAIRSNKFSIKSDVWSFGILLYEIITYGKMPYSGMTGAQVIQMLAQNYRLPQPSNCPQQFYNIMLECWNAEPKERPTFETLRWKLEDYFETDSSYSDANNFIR
Calcium/calmodulin-dependent protein kinase type II subunit gamma, sequence (Q13555 whole entry): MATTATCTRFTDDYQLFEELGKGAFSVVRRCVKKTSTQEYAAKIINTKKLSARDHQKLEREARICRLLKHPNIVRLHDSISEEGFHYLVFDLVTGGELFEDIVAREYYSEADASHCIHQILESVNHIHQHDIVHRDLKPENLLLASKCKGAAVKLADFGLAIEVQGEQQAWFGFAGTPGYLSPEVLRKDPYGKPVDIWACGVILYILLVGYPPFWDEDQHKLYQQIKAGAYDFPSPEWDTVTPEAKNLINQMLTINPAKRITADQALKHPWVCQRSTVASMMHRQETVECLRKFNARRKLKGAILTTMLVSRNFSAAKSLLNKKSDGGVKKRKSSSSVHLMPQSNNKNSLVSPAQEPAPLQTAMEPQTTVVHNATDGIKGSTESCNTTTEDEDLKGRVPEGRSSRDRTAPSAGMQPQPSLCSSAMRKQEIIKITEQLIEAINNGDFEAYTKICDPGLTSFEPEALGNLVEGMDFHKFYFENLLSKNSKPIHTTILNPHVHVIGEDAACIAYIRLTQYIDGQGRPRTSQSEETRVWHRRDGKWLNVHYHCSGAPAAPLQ

As a reminder, the pKd is the negative decadic logarithm of the Kd, by convention in mol/L. Turning to `COCC(=O)NC/C=C/c1ccc2ncnc(Nc3ccc(Oc4ccc(C)nc4)c(C)c3)c2c1` [CP-724714], the negative logarithm of the Kd (pKd) in assay [1], in assay [2], in [3], in assay [4], in assay [5] and in [6] was under 5.00 each time. In addition, the pKd (in [7]; at Ephrin type-A receptor 7; in [8]; in assay [9]; in assay [10]) was under 5.00 in each case.

As for `Nc1nc(Nc2ccc(S(N)(=O)=O)cc2)nn1C(=O)c1c(F)cccc1F` [JNJ-7706621], the pKd in assay [1] is under 5.00; in assay [3], under 5.00; in [4], under 5.00; in assay [5], under 5.00; on Ephrin type-A receptor 7 it was 5.51; in assay [9] it was under 5.00.

Regarding `CCOc1cc2ncc(C#N)c(Nc3ccc(F)c(Cl)c3)c2cc1NC(=O)/C=C/CN(C)C` [PELITINIB], the pKd was under 5.00 in [1]; under 5.00 in [2]; under 5.00 in [3]; 6.51 in [4]; under 5.00 in assay [6]; under 5.00 in assay [7]. Moreover, the pKd (on Ephrin type-A receptor 7; in assay [8]; in [9]; in [10]) was under 5.00 each time.

As to `Oc1ccc(-c2nc(-c3ccncc3)c(-c3ccc(F)cc3)[nH]2)cc1` [SB-202190], the pKd is under 5.00 in assay [1]; under 5.00 in [2]; 6.29 in assay [4]; 5.51 in [5]; under 5.00 in assay [6]; under 5.00 in assay [7]. Also, the pKd (on Ephrin type-A receptor 7; in [8]; in assay [9]; in [10]) was under 5.00 throughout.

Regarding `NC(=O)c1ccc(-c2nc(-c3ccc4c(c3)OCO4)c(-c3ccccn3)[nH]2)cc1` [SB-431542], the pKd in assay [1] was under 5.00; in assay [2], under 5.00; in assay [3], 5.47; in assay [4] it was under 5.00; in assay [5], under 5.00; in assay [6], under 5.00. Also, the pKd (at Ephrin type-A receptor 7; in assay [8]; in [9]; in assay [10]) was under 5.00 throughout.
